Experimental data published in patent US20160244845A1, “METHOD FOR DETERMINING THE PROGNOSIS OF PANCREATIC CANCER” (AB SCIENCE, priority 2013, published 2016).

Key:
[1] = tested on: pancreatic cancer patients; details: cited from earlier work
[2] = tested on: pancreatic cancer patients; experiment: Clinical phase III study AB07012 (ancillary pharmacogenomic study): overall survival of pancreatic cancer patients; details: ACOX1 subgroup, DCt cut-off <=3.05; 95% CI [0.10; 0.51]; p-value 0.001

Compound: C#Cc1cccc(Nc2ncnc3cc(OCCOC)c(OCCOC)cc23)c1 [Erlotinib]
- overall survival (OS) compared to gemcitabine treatment alone ([1]; in combination treatment with gemcitabine): therapeutic benefit

Compound: Cc1ccc(NC(=O)c2ccc(CN3CCN(C)CC3)cc2)cc1Nc1nc(-c2cccnc2)cs1 [Masitinib]
- hazard ratio (masitinib treatment effect with respect to placebo) [2]: 0.23

Compound: Folfirinox
- survival rates after 2 years compared to gemcitabine alone ([1]; pancreatic cancer patients): no benefit
- median overall survival ([1]; pancreatic cancer patients, folfirinox: recent phase III study): 11.1 months
